Experimental data reported in patent US9765056B2, “Indole and pyrrole compounds, a process for their preparation and pharmaceutical compositions containing them” (LES LABORATOIRES SERVIER, priority 2013, dated 2017).
Structures can show the parent of a compound that is named as a salt.

Tests used:
[1] = test system: RS4;11 leukaemia tumour line; assay: In vitro cytotoxicity, Microculture Tetrazolium Assay (MTT); type: cell-based; conditions: Homo sapiens; RS4;11 cells, 48 hours exposure
Procedure: The cytotoxicity studies were carried out on the RS4;11 leukaemia tumour line.
The cells are distributed onto microplates and exposed to the test compounds for 48 hours. The cell viability is then quantified by a colorimetric assay, the Microculture Tetrazolium Assay (Cancer Res., 1987, 47, 939-942).

Bcl-2 protein = Bcl-2 protein (histag-Bcl-2, UniProtKB P10415) (Homo sapiens (Human), UniProt P10415); assay: Inhibition of Bcl-2 by the fluorescence polarisation technique; type: binding; conditions: fluorescence polarisation test; method A, or method B where underlined (underlining not visible); read-out: IC50 (nM) Bcl-2 FP
Sequence of Bcl-2 protein (P10415 whole entry): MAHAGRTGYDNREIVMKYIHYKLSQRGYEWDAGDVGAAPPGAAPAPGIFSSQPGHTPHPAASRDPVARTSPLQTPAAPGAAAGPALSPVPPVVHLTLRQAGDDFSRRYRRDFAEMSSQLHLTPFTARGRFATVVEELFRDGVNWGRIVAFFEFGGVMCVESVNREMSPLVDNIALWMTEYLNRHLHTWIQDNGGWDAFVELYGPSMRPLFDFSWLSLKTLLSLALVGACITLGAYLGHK
Description: Inhibition of Bcl-2 by the fluorescence polarisation technique

Row | Compound | IC50 (Bcl-2 protein) [nM] | IC50 [1] [nM]
1 | Cc1cc(C(=O)N(c2ccc(O)cc2)c2ccc3[nH]ccc3c2)cn1-c1ccccc1C(=O)N1Cc2ccccc2C[C@H]1CN(C)C [Example 23, 1-(2-{[(3S)-3-[(Dimethylamino)methyl]-3,4-dihydroisoquinolin-2(1H)-yl]carbonyl}phenyl)-N-(4-hydroxyphenyl)-N-(1H-indol-5-yl)-5-methyl-1H-pyrrole-3-carboxamide] | 26.1 | 445
2 | CN1CCN(C[C@@H]2Cc3ccccc3CN2C(=O)c2cc3c(cc2-n2cc(C(=O)N(c4ccccc4)c4ccccc4)c4ccccc42)OCO3)CC1 [Example 177, 1-{6-[(3S)-3-[(4-Methylpiperazin-1-yl)methyl]-1,2,3,4-tetrahydroisoquinoline-2-carbonyl]-2H-1,3-benzodioxol-5-yl}-N,N-diphenyl-1H-indole-3-carboxamide dihydrochloride] | 18.8 | 568
3 | Cc1cc(C(=O)N(c2ccc(O)cc2)c2ccc3c(ccn3CCN3CCOCC3)c2)cn1-c1cc2c(cc1C(=O)N1Cc3ccccc3C[C@H]1C)OCO2 [Example 116, N-(4-Hydroxyphenyl)-5-methyl-1-(6-{[(3R)-3-methyl-3,4-dihydroisoquinolin-2(1H)-yl]carbonyl}-1,3-benzodioxol-5-yl)-N-{1-[2-(morpholin-4-yl)ethyl]-1H-indol-5-yl}-1H-pyrrole-3-carboxamide hydrochloride] | 12.1 | 131
4 | NC[C@@H]1Cc2ccccc2CN1C(=O)c1cc(NC(=O)COc2ccccc2)ccc1-n1nc(C(=O)N(c2ccccc2)c2ccccc2)c2ccccc21 [Example 144, 1-{2-[(3S)-3-(Aminomethyl)-1,2,3,4-tetrahydroisoquinoline-2-carbonyl]-4-(2-phenoxyacetamido)phenyl}-N,N-diphenyl-1H-indazole-3-carboxamide] | 35 | 1380
5 | COc1ccc(C(=O)N2Cc3ccccc3C[C@H]2CN)c(-n2cc(C(=O)N(c3ccccc3)c3ccccc3)c3ccccc32)c1 [Example 147, 1-{2-[(3S)-3-(Aminomethyl)-1,2,3,4-tetrahydroisoquinoline-2-carbonyl]-5-methoxyphenyl}-N,N-diphenyl-1H-indole-3-carboxamide] | 22.5 | 966
6 | NC[C@@H]1Cc2ccccc2CN1C(=O)c1ccccc1-n1cc(C(=O)N(c2ccccc2)c2ccc(O)cc2)c2ccccc21 [Example 131, 1-{2-[(3S)-3-(Aminomethyl)-1,2,3,4-tetrahydroisoquinoline-2-carbonyl}phenyl]-N-(4-hydroxyphenyl)-N-phenyl-1H-indole-3-carboxamide] | 18.9 | 469
7 | NC[C@@H]1Cc2ccccc2CN1C(=O)c1cc2c(cc1-n1nc(C(=O)N(c3ccccc3)c3ccccc3)c3ccccc31)OCO2 [Example 132, 1-{6-[(3S)-3-(Aminomethyl)-1,2,3,4-tetrahydroisoquinoline-2-carbonyl]-2H-1,3-benzodioxol-5-yl}-N,N-diphenyl-1H-indazole-3-carboxamide] | 31.7 | 1860
8 | COc1ccc(C(=O)N2Cc3ccccc3C[C@H]2CN)c(-n2nc(C(=O)N(c3ccccc3)c3ccccc3)c3ccccc32)c1 [Example 150, 1-{2-[(3S)-3-(Aminomethyl)-1,2,3,4-tetrahydroisoquinoline-2-carbonyl]-5-methoxyphenyl}-N,N-diphenyl-1H-indazole-3-carboxamide] | 51 | 1320
9 | Cc1cc(C(=O)N(c2ccccc2)c2ccc(O)cc2)cn1-c1cc(Br)c(Br)cc1C(=O)N1Cc2ccccc2C[C@H]1CN1CCN(C)CC1 [Example 16, 1-(4,5-Dibromo-2-{[(3S)-3-[(4-methylpiperazin-1-yl)methyl]-3,4-dihydroisoquinolin-2(1H)-yl]carbonyl}phenyl)-N-(4-hydroxyphenyl)-5-methyl-N-phenyl-1H-pyrrole-3-carboxamide] | 29.6 | 656
10 | Cc1ccc(N(C(=O)c2cc(C)n(-c3cc(Br)ccc3C(=O)N3Cc4ccccc4C[C@H]3CN3CCN(C)CC3)c2)c2ccc(O)cc2)cc1 [Example 53, 1-(5-Bromo-2-{[(3S)-3-[(4-methylpiperazin-1-yl)methyl]-3,4-dihydroisoquinolin-2(1H)-yl]carbonyl}phenyl)-N-(4-hydroxyphenyl)-5-methyl-N-(4-methylphenyl)-1H-pyrrole-3-carboxamide] | 9 | 207

The next lines start with results.

Row | IC50 (Bcl-2 protein) [nM] | Compound | IC50 [1] [nM]
11 | 7.8 | CN1CCN(C[C@@H]2Cc3ccccc3CN2C(=O)c2cc3c(cc2-n2cc(C(=O)N(CCc4ccccc4)c4ccc(O)cc4)c4ccccc42)OCO3)CC1 [Example 40, N-(4-Hydroxyphenyl)-1-(6-{[(3S)-3-[(4-methylpiperazin-1-yl)methyl]-3,4-dihydroisoquinolin-2(1H)-yl]carbonyl}-1,3-benzodioxol-5-yl)-N-(2-phenylethyl)-1H-indole-3-carboxamide] | 167
12 | 7.5 | Cc1cc(C(=O)N(c2ccccc2)c2ccc(O)cc2)cn1-c1cc(Cl)ccc1C(=O)N1Cc2ccccc2C[C@H]1CN1CCN(C)CC1 [Example 26, 1-(5-Chloro-2-{[(3S)-3-[(4-methylpiperazin-1-yl)methyl]-3,4-dihydroisoquinolin-2(1H)-yl]carbonyl}phenyl)-N-(4-hydroxyphenyl)-5-methyl-N-phenyl-1H-pyrrole-3-carboxamide] | 171
13 | 17.6 | CN1CCN(C[C@@H]2Cc3ccccc3CN2C(=O)c2cc3c(cc2-n2cc(C(=O)N(c4ccc(O)c(Cl)c4)c4ccc5[nH]ccc5c4)c4ccccc42)OCO3)CC1 [Example 82, N-(3-Chloro-4-hydroxyphenyl)-N-(1H-indol-5-yl)-1-(6-{[(3S)-3-[(4-methylpiperazin-1-yl)methyl]-3,4-dihydroisoquinolin-2(1H)-yl]carbonyl}-1,3-benzodioxol-5-yl)-1H-indole-3-carboxamide hydrochloride] | 373
14 | 3.8 | CN1CCN(C[C@@H]2Cc3ccccc3CN2C(=O)c2cc3c(cc2-n2cc(C(=O)N(c4ccc(O)cc4)c4ccc5[nH]ccc5c4)c4ccccc42)OCO3)CC1 [Example 37, N-(4-Hydroxyphenyl)-N-(1H-indol-5-yl)-1-(6-{[(3S)-3-[(4-methylpiperazin-1-yl)methyl]-3,4-dihydroisoquinolin-2(1H)-yl]carbonyl}-1,3-benzodioxol-5-yl)-1H-indole-3-carboxamide] | 47.1
15 | 4.4 | COc1cc(-n2cc(C(=O)N(c3ccc(O)cc3)c3ccc4[nH]ccc4c3)c3ccccc32)c(C(=O)N2Cc3ccccc3C[C@H]2CN2CCN(C)CC2)cc1O [Example 202, 1-{4-Hydroxy-5-methoxy-2-[(3S)-3-[(4-methylpiperazin-1-yl)methyl]-1,2,3,4-tetrahydroisoquinoline-2-carbonyl]phenyl}-N-(4-hydroxyphenyl)-N-(1H-indol-5-yl)-1H-indole-3-carboxamide] | 798
16 | 10.7 | Cc1cc(C(=O)N(c2ccccc2)c2ccc(O)cc2)cn1-c1cc(Br)ccc1C(=O)N1Cc2ccccc2C[C@H]1CN1CCN(C)CC1 [Example 22, 1-(5-Bromo-2-{[(3S)-3-[(4-methylpiperazin-1-yl)methyl]-3,4-dihydroisoquinolin-2(1H)-yl]carbonyl}phenyl)-N-(4-hydroxyphenyl)-5-methyl-N-phenyl-1H-pyrrole-3-carboxamide] | 142
17 | 5 | CN1CCN(C[C@@H]2Cc3ccccc3CN2C(=O)c2cc3c(cc2-n2cc(C(=O)N(c4ccc(O)cc4)c4ccc(F)c(F)c4)c4ccccc42)OCO3)CC1 [Example 56, N-(3,4-Difluorophenyl)-N-(4-hydroxyphenyl)-1-(6-{[(3S)-3-[(4-methylpiperazin-1-yl)methyl]-3,4-dihydroisoquinolin-2(1H)-yl]carbonyl}-1,3-benzodioxol-5-yl)-1H-indole-3-carboxamide] | 135
18 | 2.9 | Cc1cc(C(=O)N(c2ccc(O)cc2)c2ccc3c(ccn3C)c2)cn1-c1cc(Br)ccc1C(=O)N1Cc2ccccc2C[C@H]1CN1CCN(C)CC1 [Example 70, 1-(5-Bromo-2-{[(3S)-3-[(4-methylpiperazin-1-yl)methyl]-3,4-dihydroisoquinolin-2(1H)-yl]carbonyl}phenyl)-N-(4-hydroxyphenyl)-5-methyl-N-(1-methyl-1H-indol-5-yl)-1H-pyrrole-3-carboxamide hydrochloride] | 63.8
19 | 9.6 | Cc1cc(C(=O)N(c2ccc(O)cc2)c2ccc3[nH]ccc3c2)cn1-c1cc(Cl)cc(Cl)c1C(=O)N1Cc2ccccc2C[C@H]1CN1CCN(C)CC1 [Example 92, 1-(3,5-Dichloro-2-{[(3S)-3-[(4-methylpiperazin-1-yl)methyl]-3,4-dihydroisoquinolin-2(1H)-yl]carbonyl}phenyl)-N-(4-hydroxyphenyl)-N-(1H-indol-5-yl)-5-methyl-1H-pyrrole-3-carboxamide] | 202
20 | 7.1 | CN1CCN(C[C@@H]2Cc3ccccc3CN2C(=O)c2ccc(Cl)cc2-n2cc(C(=O)N(c3ccc(O)cc3)c3ccc(F)cc3)c3ccccc32)CC1 [Example 75, 1-(5-Chloro-2-{[(3S)-3-[(4-methylpiperazin-1-yl)methyl]-3,4-dihydroisoquinolin-2(1H)-yl]carbonyl}phenyl)-N-(4-fluorophenyl)-N-(4-hydroxyphenyl)-1H-indole-3-carboxamide] | 184
21 | 6.2 | COc1cc(-n2cc(C(=O)N(c3ccccc3)c3ccc(O)cc3)c3ccccc32)c(C(=O)N2Cc3ccccc3C[C@H]2CN2CCCCC2)cc1O [Example 176, 1-{4-Hydroxy-5-methoxy-2-[(3S)-3-(piperidin-1-ylmethyl)-1,2,3,4-tetrahydroisoquinoline-2-carbonyl]phenyl}-N-(4-hydroxyphenyl)-N-phenyl-1H-indole-3-carboxamide hydrochloride] | 225
